Measurements reported in US20260144805A1, “CANNABIDIOL COMPOSITIONS FOR USE IN THE TREATMENT OF NEURODEGENERATIVE AND NEUROLOGICAL DISORDERS” (JAZZ PHARMACEUTICALS RESEARCH UK LIMITED, priority 2022, published 2026).

Experiments:
rTg4510 mice = assay: Open Field (OF) test, locomotor activity in rTg4510 mouse model of Alzheimer's Disease (Example 2; DS = DS-C); assay type: in vivo; conditions: for Locomotor activity totals, Mean / Locomotor activity totals, % vs Wild-type / Locomotor activity totals, % vs rTg4510: Doxycycline 200 ppm diet
Description: The aim of this study was to evaluate the efficacy of the present drug substance to modulate the agitation-like behaviours in the rTg4510 regulatable mouse model of Alzheimer's Disease (AD). Animals were tested in a behavioural assay, the Open Field (OF) test to measure locomotor activity (LMA). Activity was first assessed at a 21-week-old baseline to determine whether a hyperactive phenotype (to be used as a proxy for agitation) had developed and was further assessed at 2 subsequent ages in acute and chronic efficacy phases.
Ninety male rTg4510 (CC) mice and 15 wild-type (WW) (Tg(Camk2a-tTA)1Mmay Fgf14^Tg(tetO-MAPT*P301L)4510Kha/J, Jax strain #024854, licensed from the Mayo Clinic, USA) were split into 2 cohorts, 4 weeks apart in age; cohort 1 contained 53 mice (8 WW and 45 CC) and cohort 2 contained 52 mice (7 WW and 45 CC). Relative humidity was 55±15% throughout. Mice were housed in individually ventilated cages on a 12 h/12 h light/dark cycle (lights on at 07.00 h; illumination by red light during the dark phase), at an ambient temperature of 24±4° C. with free access to standard rodent maintenance diet and filtered water. Animals were allowed to acclimatise to the above conditions for 7-10 days prior to the study start. All housing groupings were preserved until the mice were approximately 5 months old, at which point they were singly housed.
Doxycycline administration: a subset of animals in cohort 2 (n=15) was administered 2× daily oral bolus doses of doxycycline hyclate (10 mg/kg p.o. in 5% glucose, Sigma Aldrich) at 13 weeks of age, followed by continuous exposure to normal lab chow containing 200 ppm doxycycline (Envigo Teklad 2018 TD.00502 no colourants, irradiated and vacuum-packed). All other animals received Envigo Teklad 2018 diet. All diet was provided ad libitum.
Following this regime, animals were evaluated in Open Field (OF) test, before being deeply anaesthetised at the end of the behavioural testing prior to biofluid sampling and tissue harvesting.
Specifically, the material was solubilised by the addition of 50 μL of 10% glacial acetic acid and making up to volume with 0.9% saline (Aquapharm, Animal Care, York, UK, Lot 21030311).
Drug Substance (DS): (i.e., DS-C, See Table B in Example 1) Dosing volume was 10 mL/kg and DS was formulated at the 150 mg/kg dose in a vehicle of ethanol: Kolliphor HS15: 0.9% saline (1:12:87, w/w/v) which were stored at room temperature and added at approximately 60° C. to form solutions which were subsequently stable at room temperature. All dosing formulations were protected from light whenever possible. Dosing solutions were made fresh on the day of dosing, with lower dose formulations being prepared by dilution from the 150 mg/kg dosing solution at room temperature.
Locomotor activity was assessed by OF test in the light phase of the light-dark cycle at weeks 21, 26 and 31. An automated beam break apparatus (40 cages) was used for the assessment of locomotor activity in rats and mice. Each cage had 4 beams; 1 ‘y’ and 3 ‘x’ which triggered a signal through capacitors when the beam was broken. Signals were collected by data loggers and processed accordingly. All animals were placed in the apparatus and spontaneous activity was assessed for a four-hour period between 0900 and 1300. Animals were then removed from the apparatus and returned to their home cages. LMA assessment was split over 2 consecutive days at each time point.
For locomotor data, a log (x+1) transformation was used. For weeks 21 & 26, means and SEMs were calculated from the transformed data. Analysis was by Friedman's two-way nonparametric ANOVA with treatment and test day as factors to compare each group to the WW animals, and (where appropriate) Doxycycline with the untreated rTg4510 group. For week 30, data excluding the WW and Doxycycline groups for each time period were analysed by robust regression model using M estimation, Huber weighting, using the default parameter c=1.345. […]

[1] = Weekly body weight of rTg4510 mice (Example 2); assay type: in vivo, mouse; conditions: rTg4510 mice fed doxycycline; 15 weeks of age
Description: Weekly bodyweight: all animals were weighed weekly until the end of the study.
Weekly body weight data were analysed by mixed linear model with the cohort by week and group by week interactions as fixed effects, animal as the random subject, using an AR (1)+RE correlation structure. Comparisons to the WW and rTg4510 (vehicle) groups for the same week were by the multiple t test.

[2] = Brain weight of rTg4510 mice (Example 2); assay type: in vivo, mouse; conditions: rTg4510 CC mice administered doxycycline; end of study
Description: Brain Tissue Collection: Mice were decapitated and the brains rapidly extracted. Brains were briefly washed in saline and blot dried then hemisected, weighed separately and frozen on dry ice before storage at approximately −80° C.
Brain weights were analysed by 2-way analysis of variance with treatment and cohort as factors.

[3] = Week 31, 0-240 minute period, doxycycline-treated group

## C[C@H]1c2cccc(O)c2C(=O)C2=C(O)[C@]3(O)C(=O)C(C(N)=O)=C(O)[C@@H](N(C)C)[C@@H]3[C@@H](O)[C@@H]21 [Doxycycline, doxycycline hyclate]
rTg4510 mice; Week 21, 0-30 minutes
  Locomotor activity totals, Mean: 855.0
rTg4510 mice; Week 21, 0-60 minutes
  Locomotor activity totals, Mean: 1624.9
rTg4510 mice; Week 21, 0-240 minutes
  Locomotor activity totals, Mean: 3476.4
rTg4510 mice; Week 21, 30-60 minutes
  Locomotor activity totals, Mean: 749.9
rTg4510 mice; Week 21, 60-90 minutes
  Locomotor activity totals, Mean: 542.2
rTg4510 mice; Week 21, 60-120 minutes
  Locomotor activity totals, Mean: 880.1
rTg4510 mice; Week 21, 90-120 minutes
  Locomotor activity totals, Mean: 283.2
rTg4510 mice; Week 21, 120-150 minutes
  Locomotor activity totals, Mean: 227.4
rTg4510 mice; Week 21, 120-180 minutes
  Locomotor activity totals, Mean: 521.1
rTg4510 mice; Week 21, 150-180 minutes
  Locomotor activity totals, Mean: 181.8
rTg4510 mice; Week 21, 180-210 minutes
  Locomotor activity totals, Mean: 71.1
rTg4510 mice; Week 21, 180-240 minutes
  Locomotor activity totals, Mean: 212.8
rTg4510 mice; Week 21, 210-240 minutes
  Locomotor activity totals, Mean: 52.4
rTg4510 mice; Week 26, 0-30 minutes
  Locomotor activity totals, Mean: 903.7
rTg4510 mice; Week 26, 0-60 minutes
  Locomotor activity totals, Mean: 1606.6
rTg4510 mice; Week 26, 0-240 minutes
  Locomotor activity totals, Mean: 3435.5
rTg4510 mice; Week 26, 30-60 minutes
  Locomotor activity totals, Mean: 664.6
rTg4510 mice; Week 26, 60-90 minutes
  Locomotor activity totals, Mean: 489.8
rTg4510 mice; Week 26, 60-120 minutes
  Locomotor activity totals, Mean: 770.3
rTg4510 mice; Week 26, 90-120 minutes
  Locomotor activity totals, Mean: 186.7
rTg4510 mice; Week 26, 120-150 minutes
  Locomotor activity totals, Mean: 157.0
rTg4510 mice; Week 26, 120-180 minutes
  Locomotor activity totals, Mean: 459.9
rTg4510 mice; Week 26, 150-180 minutes
  Locomotor activity totals, Mean: 142.2
rTg4510 mice; Week 26, 180-210 minutes
  Locomotor activity totals, Mean: 185.3
rTg4510 mice; Week 26, 180-240 minutes
  Locomotor activity totals, Mean: 362.6
rTg4510 mice; Week 26, 210-240 minutes
  Locomotor activity totals, Mean: 41.3
rTg4510 mice; Week 31, 0-30 minutes
  Locomotor activity totals, % vs Wild-type: 143.2%
  Locomotor activity totals, % vs rTg4510: 58.7%
  Locomotor activity totals, Mean: 744.04
rTg4510 mice; Week 31, 0-60 minutes
  Locomotor activity totals, % vs Wild-type: 144.7%
  Locomotor activity totals, % vs rTg4510: 47.6%
  Locomotor activity totals, Mean: 1216.28
rTg4510 mice; [3]
  activity as % of the activity seen in the WW animals: 100.6%
  activity as % of the activity seen in the rTg4510(vehicle) animals: 26.2%
rTg4510 mice; Week 31, 30-60 minutes
  Locomotor activity totals, % vs Wild-type: 141.7%
  Locomotor activity totals, % vs rTg4510: 35.3%
  Locomotor activity totals, Mean: 445.74
rTg4510 mice; Week 31, 60-90 minutes
  Locomotor activity totals, % vs Wild-type: 153.3%
  Locomotor activity totals, % vs rTg4510: 37.0%
  Locomotor activity totals, Mean: 231.53
rTg4510 mice; Week 31, 60-120 minutes
  Locomotor activity totals, % vs Wild-type: 176.8%
  Locomotor activity totals, % vs rTg4510: 49.4%
  Locomotor activity totals, Mean: 477.89
rTg4510 mice; Week 31, 90-120 minutes
  Locomotor activity totals, % vs Wild-type: 324.4%
  Locomotor activity totals, % vs rTg4510: 110.8%
  Locomotor activity totals, Mean: 165.38
rTg4510 mice; Week 31, 120-150 minutes
  Locomotor activity totals, % vs Wild-type: 134.8%
  Locomotor activity totals, % vs rTg4510: 63.1%
  Locomotor activity totals, Mean: 105.17
rTg4510 mice; Week 31, 150-180 minutes
  Locomotor activity totals, % vs Wild-type: 135.0%
  Locomotor activity totals, % vs rTg4510: 33.9%
  Locomotor activity totals, Mean: 28.13
rTg4510 mice; Week 31, 180-210 minutes
  Locomotor activity totals, % vs Wild-type: 8.9%
  Locomotor activity totals, % vs rTg4510: 5.6%
  Locomotor activity totals, Mean: 1.72
rTg4510 mice; Week 31, 210-240 minutes
  Locomotor activity totals, % vs Wild-type: 90.8%
  Locomotor activity totals, % vs rTg4510: 117.5%
  Locomotor activity totals, Mean: 16.18
[1]
  body weight: 29.14 ± 0.50 g
[2]
  mean brain weight: 408.8 ± 6.1 mg
